# Data as given in US20240124427A1, “HYDROXYHETEROCYCLOALKANE-CARBAMOYL DERIVATIVES” (Idorsia Pharmaceuticals Ltd, priority 2021, published 2024).
# Target: human Gal-3 (hGal-3) (Homo sapiens (Human), UniProt P17931)
# Experiment: Competitive binding assay: biotinylated hGal-3 binding to microplate-adsorbed asialofetuin (ASF)
# Conditions: Activity on hGal-3; mean values of several measurements; mixture of diastereomers measured where not separated
# How it was run: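 Spectrophotometric read-out using streptavidin-peroxidase and ABTS quantifies how much biotin-hGal-3 remains bound to microplate asialofetuin after 3 h at 4 °C with compound present. Values are means of repeated IC50 determinations.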
# human Gal-3 (hGal-3), sequence (P17931 whole entry): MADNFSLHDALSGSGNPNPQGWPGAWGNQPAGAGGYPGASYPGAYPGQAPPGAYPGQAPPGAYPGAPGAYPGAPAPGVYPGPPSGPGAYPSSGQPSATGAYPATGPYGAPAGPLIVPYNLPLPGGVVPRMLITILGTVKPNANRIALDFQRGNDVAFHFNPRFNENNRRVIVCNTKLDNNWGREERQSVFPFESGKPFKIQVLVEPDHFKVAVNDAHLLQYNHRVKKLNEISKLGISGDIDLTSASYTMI
row,IC50 [µM],Compound
1,0.023,"CO[C@@H]1[C@@H](n2cc(-c3ccc(Br)c(F)c3F)nn2)[C@@H](O)[C@@H](CO)O[C@H]1C(=O)N(c1cc(Cl)cc(Cl)c1)[C@H]1CN(C(C)=O)C[C@@H]1O [Example 73, (2R,3R,4S,5R,6R)-N-((3S,4S)-1-acetyl-4-hydroxypyrrolidin-3-yl)-4-(4-(4-bromo-2,3-difluorophenyl)-1H-1,2,3-triazol-1-yl)-N-(3,5-dichlorophenyl)-5-hydroxy-6-(hydroxymethyl)-3-methoxytetrahydro-2H-pyran-2-carboxamide]"
2,0.027,"CO[C@@H]1[C@@H](n2cc(-c3cc(F)c(C)c(F)c3)nn2)[C@@H](O)[C@@H](CO)O[C@H]1C(=O)N(c1cc(Br)cc(Br)c1)[C@H]1CN(C(C)=O)C[C@@H]1O [Example 74, (2R,3R,4S,5R,6R)-N-((3S,4S)-1-acetyl-4-hydroxypyrrolidin-3-yl)-N-(3,5-dibromophenyl)-4-(4-(3,5-difluoro-4-methylphenyl)-1H-1,2,3-triazol-1-yl)-5-hydroxy-6-(hydroxymethyl)-3-methoxytetrahydro-2H-pyran-2-carboxamide]"
3,0.022,"CO[C@@H]1[C@@H](n2cc(-c3cc(F)c(C)c(F)c3)nn2)[C@@H](O)[C@@H](CO)O[C@H]1C(=O)N(c1cc(C)cc(Br)c1)[C@H]1CN(C(C)=O)C[C@@H]1O [Example 75, (2R,3R,4S,5R,6R)-N-((3S,4S)-1-acetyl-4-hydroxypyrrolidin-3-yl)-N-(3-bromo-5-methylphenyl)-4-(4-(3,5-difluoro-4-methylphenyl)-1H-1,2,3-triazol-1-yl)-5-hydroxy-6-(hydroxymethyl)-3-methoxytetrahydro-2H-pyran-2-carboxamide]"
4,0.037,"CO[C@@H]1[C@@H](n2cc(-c3cc(F)c(Cl)c(F)c3)nn2)[C@@H](O)[C@@H](CO)O[C@H]1C(=O)N(c1cc(C)cc(Br)c1)[C@H]1CN(C(C)=O)C[C@@H]1O [Example 76, (2R,3R,4S,5R,6R)-N-((3S,4S)-1-acetyl-4-hydroxypyrrolidin-3-yl)-N-(3-bromo-5-methylphenyl)-4-(4-(4-chloro-3,5-difluorophenyl)-1H-1,2,3-triazol-1-yl)-5-hydroxy-6-(hydroxymethyl)-3-methoxytetrahydro-2H-pyran-2-carboxamide]"
5,0.08,"CO[C@@H]1[C@@H](n2cc(-c3cc(F)c(F)c(F)c3)nn2)[C@@H](O)[C@@H](CO)O[C@H]1C(=O)N(c1cc(Cl)cc(Cl)c1)[C@@H]1CN(C(C)=O)C[C@H]1O [Example 77, (2R,3R,4S,5R,6R)-N-((3R,4R)-1-acetyl-4-hydroxypyrrolidin-3-yl)-N-(3,5-dichlorophenyl)-5-hydroxy-6-(hydroxymethyl)-3-methoxy-4-(4-(3,4,5-trifluorophenyl)-1H-1,2,3-triazol-1-yl)tetrahydro-2H-pyran-2-carboxamide]"
6,0.071,"CO[C@@H]1[C@@H](n2cc(-c3cc(F)c(F)c(F)c3)nn2)[C@@H](O)[C@@H](CO)O[C@H]1C(=O)N(c1cc(Br)cc(C#N)c1)[C@@H]1CN(C(C)=O)C[C@H]1O [Example 78, (2R,3R,4S,5R,6R)-N-((3R,4R)-1-acetyl-4-hydroxypyrrolidin-3-yl)-N-(3-bromo-5-cyanophenyl)-5-hydroxy-6-(hydroxymethyl)-3-methoxy-4-(4-(3,4,5-trifluorophenyl)-1H-1,2,3-triazol-1-yl)tetrahydro-2H-pyran-2-carboxamide]"
7,0.076,"CO[C@@H]1[C@@H](n2cc(-c3cc(F)c(F)c(F)c3)nn2)[C@@H](O)[C@@H](CO)O[C@H]1C(=O)N(c1cc(C)cc(Br)c1)[C@@H]1CN(C(C)=O)C[C@H]1O [Example 79, (2R,3R,4S,5R,6R)-N-((3R,4R)-1-acetyl-4-hydroxypyrrolidin-3-yl)-N-(3-bromo-5-methylphenyl)-5-hydroxy-6-(hydroxymethyl)-3-methoxy-4-(4-(3,4,5-trifluorophenyl)-1H-1,2,3-triazol-1-yl)tetrahydro-2H-pyran-2-carboxamide]"
8,0.031,"CO[C@@H]1[C@@H](n2cc(-c3ccc(Br)c(F)c3F)nn2)[C@@H](O)[C@@H](CO)O[C@H]1C(=O)N(c1cc(Cl)cc(Cl)c1)[C@@H]1CN(C(C)=O)C[C@H]1O [Example 80, (2R,3R,4S,5R,6R)-N-((3R,4R)-1-acetyl-4-hydroxypyrrolidin-3-yl)-4-(4-(4-bromo-2,3-difluorophenyl)-1H-1,2,3-triazol-1-yl)-N-(3,5-dichlorophenyl)-5-hydroxy-6-(hydroxymethyl)-3-methoxytetrahydro-2H-pyran-2-carboxamide]"
9,0.04,"CO[C@@H]1[C@@H](n2cc(-c3cc(F)c(C)c(F)c3)nn2)[C@@H](O)[C@@H](CO)O[C@H]1C(=O)N(c1cc(Br)cc(Br)c1)[C@@H]1CN(C(C)=O)C[C@H]1O [Example 81, (2R,3R,4S,5R,6R)-N-((3R,4R)-1-acetyl-4-hydroxypyrrolidin-3-yl)-N-(3,5-dibromophenyl)-4-(4-(3,5-difluoro-4-methylphenyl)-1H-1,2,3-triazol-1-yl)-5-hydroxy-6-(hydroxymethyl)-3-methoxytetrahydro-2H-pyran-2-carboxamide]"
10,0.045,"CO[C@@H]1[C@@H](n2cc(-c3cc(F)c(C)c(F)c3)nn2)[C@@H](O)[C@@H](CO)O[C@H]1C(=O)N(c1cc(C)cc(Br)c1)[C@@H]1CN(C(C)=O)C[C@H]1O [Example 82, (2R,3R,4S,5R,6R)-N-((3R,4R)-1-acetyl-4-hydroxypyrrolidin-3-yl)-N-(3-bromo-5-methylphenyl)-4-(4-(3,5-difluoro-4-methylphenyl)-1H-1,2,3-triazol-1-yl)-5-hydroxy-6-(hydroxymethyl)-3-methoxytetrahydro-2H-pyran-2-carboxamide]"
11,0.067,"CO[C@@H]1[C@@H](n2cc(-c3cc(F)c(Cl)c(F)c3)nn2)[C@@H](O)[C@@H](CO)O[C@H]1C(=O)N(c1cc(C)cc(Br)c1)[C@@H]1CN(C(C)=O)C[C@H]1O [Example 83, (2R,3R,4S,5R,6R)-N-((3R,4R)-1-acetyl-4-hydroxypyrrolidin-3-yl)-N-(3-bromo-5-methylphenyl)-4-(4-(4-chloro-3,5-difluorophenyl)-1H-1,2,3-triazol-1-yl)-5-hydroxy-6-(hydroxymethyl)-3-methoxytetrahydro-2H-pyran-2-carboxamide]"
12,0.038,"CO[C@@H]1[C@@H](n2cc(-c3cc(F)c(F)c(F)c3)nn2)[C@@H](O)[C@@H](CO)O[C@H]1C(=O)N(c1cc(Br)cc(C#N)c1)[C@H]1CN(C=O)C[C@@H]1O [Example 89, (2R,3R,4S,5R,6R)-N-(3-bromo-5-cyanophenyl)-N-((3S,4S)-1-formyl-4-hydroxypyrrolidin-3-yl)-5-hydroxy-6-(hydroxymethyl)-3-methoxy-4-(4-(3,4,5-trifluorophenyl)-1H-1,2,3-triazol-1-yl)tetrahydro-2H-pyran-2-carboxamide]"
13,0.02,"CO[C@@H]1[C@@H](n2cc(-c3cc(F)c(F)c(F)c3)nn2)[C@@H](O)[C@@H](CO)O[C@H]1C(=O)N(c1cc(C)cc(Br)c1)[C@H]1CN(C=O)C[C@@H]1O [Example 90, (2R,3R,4S,5R,6R)-N-(3-bromo-5-methylphenyl)-N-((3S,4S)-1-formyl-4-hydroxypyrrolidin-3-yl)-5-hydroxy-6-(hydroxymethyl)-3-methoxy-4-(4-(3,4,5-trifluorophenyl)-1H-1,2,3-triazol-1-yl)tetrahydro-2H-pyran-2-carboxamide]"
14,0.02,"CO[C@@H]1[C@@H](n2cc(-c3ccc(Br)c(F)c3F)nn2)[C@@H](O)[C@@H](CO)O[C@H]1C(=O)N(c1cc(Cl)cc(Cl)c1)[C@H]1CN(C=O)C[C@@H]1O [Example 91, (2R,3R,4S,5R,6R)-4-(4-(4-bromo-2,3-difluorophenyl)-1H-1,2,3-triazol-1-yl)-N-(3,5-dichlorophenyl)-N-((3S,4S)-1-formyl-4-hydroxypyrrolidin-3-yl)-5-hydroxy-6-(hydroxymethyl)-3-methoxytetrahydro-2H-pyran-2-carboxamide]"
15,0.019,"CO[C@@H]1[C@@H](n2cc(-c3ccc(C)c(F)c3F)nn2)[C@@H](O)[C@@H](CO)O[C@H]1C(=O)N(c1cc(C)cc(Br)c1)[C@H]1CN(C=O)C[C@@H]1O [Example 92, (2R,3R,4S,5R,6R)-N-(3-bromo-5-methylphenyl)-4-(4-(2,3-difluoro-4-methylphenyl)-1H-1,2,3-triazol-1-yl)-N-((3S,4S)-1-formyl-4-hydroxypyrrolidin-3-yl)-5-hydroxy-6-(hydroxymethyl)-3-methoxytetrahydro-2H-pyran-2-carboxamide]"
16,0.08,"CO[C@@H]1[C@@H](n2cc(-c3cc(F)c(F)c(F)c3)nn2)[C@@H](O)[C@@H](CO)O[C@H]1C(=O)N(c1cc(Br)cc(C#N)c1)[C@@H]1CN(C=O)C[C@H]1O [Example 93, (2R,3R,4S,5R,6R)-N-(3-bromo-5-cyanophenyl)-N-((3R,4R)-1-formyl-4-hydroxypyrrolidin-3-yl)-5-hydroxy-6-(hydroxymethyl)-3-methoxy-4-(4-(3,4,5-trifluorophenyl)-1H-1,2,3-triazol-1-yl)tetrahydro-2H-pyran-2-carboxamide]"
17,0.086,"CO[C@@H]1[C@@H](n2cc(-c3cc(F)c(F)c(F)c3)nn2)[C@@H](O)[C@@H](CO)O[C@H]1C(=O)N(c1cc(C)cc(Br)c1)[C@@H]1CN(C=O)C[C@H]1O [Example 94, (2R,3R,4S,5R,6R)-N-(3-bromo-5-methylphenyl)-N-((3R,4R)-1-formyl-4-hydroxypyrrolidin-3-yl)-5-hydroxy-6-(hydroxymethyl)-3-methoxy-4-(4-(3,4,5-trifluorophenyl)-1H-1,2,3-triazol-1-yl)tetrahydro-2H-pyran-2-carboxamide]"
18,0.04,"CO[C@@H]1[C@@H](n2cc(-c3ccc(C)c(F)c3F)nn2)[C@@H](O)[C@@H](CO)O[C@H]1C(=O)N(c1cc(C)cc(Br)c1)[C@@H]1CN(C=O)C[C@H]1O [Example 95, (2R,3R,4S,5R,6R)-N-(3-bromo-5-methylphenyl)-4-(4-(2,3-difluoro-4-methylphenyl)-1H-1,2,3-triazol-1-yl)-N-((3R,4R)-1-formyl-4-hydroxypyrrolidin-3-yl)-5-hydroxy-6-(hydroxymethyl)-3-methoxytetrahydro-2H-pyran-2-carboxamide]"
